Source: patent publication US10550383B2, “Galvanotaxis assay for quantitative assessment of the metastatic potential of cancer cells” (Ohio State Innovation Foundation, priority 2013, dated 2020)

Legend:
Assay type in all cases: cell-based, human
MCF-10A cells = assay: modified transmembrane assay, migration of MCF-10A cells; conditions: 50 ng/mL EGF in lower chamber, 16 hours, no induced electric field (-E+EGF, FIG. 22)
Experimental: Weak a.c. electric fields hinder chemotaxis of “normal” breast epithelial cells. Experiments on combined chemotaxis and electrotaxis were performed with MCF10A cells in the same modified transmembrane assay in order to examine the effects of the induced a.c. electric field in hindering chemotaxis of non-transformed cells. MCF-10A cells are a non-transformed epithelial cell line derived from human fibrocystic mammary tissue. These cells are considered “normal” breast epithelial cells as they have a karyotype that is nearly diploid, are dependent on externally supplied growth factors for migration, and lack the ability to form tumors in nude mice. The growth factor EGF was used as an exogenous agent to induce MCF-10A cells to migrate in the modified transmembrane assay, as in the case of the SCP2 cells. No migration of MCF-10A cells was observed without EGF in the bottom chamber. […]
In one embodiment, MCF10A cells were cultured in Dulbecco's Modified Eagle's Media (DMEM) F12 containing 5% horse serum (HS), 20 ng/ml epidermal growth factor (EGF), 0.5 mg/ml hydrocortisone, 100 ng/ml cholrea toxin, 10 μg/ml insulin and 5 U/mL penicillin, and 5 mg/mL streptomycin at 37° C. in a humidified culture incubator supplied with 5% CO2. […] After allowing migration for 16 hours, cells were stained, photographed and counted as described for the preparation of the SCP2 cells. […]

SCP2 cells [1] = assay: visualization of actin filaments by phalloidin staining and fluorescence microscopy; conditions: EGF 100 ng/mL, one hour, no induced electric field (FIG. 6a middle panel)
Experimental: The present invention allows the visualization of actin filaments that form the cytoskeleton of the SCP2 cells and play a crucial role in cell migration, when induced electric fields are applied in a non-contact manner as described earlier (FIG. 6). The images are quantified to determine the actin filament distribution within the cell as represented by the fluorescence intensity. In one embodiment, SCP2 cells are plated on a single-well, 60 mm diameter culture plate, allowed to migrate freely for an hour, and then fixed and stained with phalloidin-fluorophore conjugate for visualization of the actin filaments (FIG. 6a, left panel). […] These images have also been quantified after importing into MATLAB (FIGS. 18-20). […]
Analysis of actin filament distribution: images obtained from phalloidin and fluorescence microscopy are imported into MATLAB (2014a, Mathworks, Inc., Massachusetts, U.S.A.). […] Intensities are then separated into red, green, and blue so that the background and nuclei intensities may be filtered out and only the green fluorescence from the actin filaments is extracted. Actin fluorescence intensities are analyzed versus cell length (longer dimension being the length), and averaged.

SCP2 cells [2] = assay: modified transmembrane assay, chemotaxis of SCP2 cells; conditions: 100 ng/mL in lower chamber, 8 hours, no induced electric field; Control vs SDF control p=0.015, Control vs EGF control p=0.001 (FIG. 4)
Experimental: Highly metastatic breast cancer cells known as SCP2, a single cell population derived from MDA-MB-231 that is known to metastasize to the bone, were cultured in Dulbecco's Modified Eagle Medium (DMEM; Life Technologies, Gaithersburg, Md., USA), supplemented with 10% heat inactivated fetal bovine serum (FBS), 5 U/mL penicillin, and 5 mg/mL streptomycin. The SCP2 cells were placed in the upper chamber, and both compartments contained 0.1% FBS-DM. The entire apparatus (holder, coil, modified transmembrane chambers with Transwell inserts and cells) was placed in a 37° C. culture incubator with humidified air containing 5% CO2. The leads of the coil were connected to the function generator placed outside the incubator. The cells were allowed to migrate for 8 hours, and then were fixed and stained using Hema-3 stain kit according to the manufacturer's instructions. The number of migratory cells per membrane was then measured using light microscopy by counting the total number of cells in each of five contiguous images spanning radially outward (five fields) from the coil (FIG. 9). […]
In one embodiment, low passage SCP2 cells were cultured in Dulbecco's Modified Eagle's Media (DMEM) containing 10% fetal bovine serum (FBS) and 5 U/mL penicillin, and 5 mg/mL streptomycin at 37° C. in a humidified culture incubator supplied with 5% CO2. […] The cells were counted using a hemocytometer. […]

Row | Substance | migration of MCF-10A cells (MCF-10A cells) | actin filament polymerization in SCP2 cells (SCP2 cells [1]) | migration of SCP2 cells (chemotaxis) versus control (SCP2 cells [2])
1 | EGF: growth factor placed in the lower chamber to induce cell migration | strongly promotes migration | polymerization of actin filaments can be observed at one end of some cells | chemotaxis is well enabled
2 | SDF-1α | – | – | chemotaxis is well enabled
